One assay deals with Rhesus monkeys. In words: Spontaneous recovery from NMB (twitch 5% to 95% of baseline) after bolus or infusion in Rhesus monkeys under isoflurane. In kind it is in vivo, Rhesus monkey. The note with it: for 5%-95% Interval: mean ± SD. How it is done:
Rhesus monkeys under isoflurane anesthesia were administered a bolus dose of either RP2000 or RP1000 at a dose equal to 1× to 10× the ED95 in Rhesus monkeys of the administered compound (ED95,Rp1000=0.040 mg/kg; ED95,RP2000=0.053 mg/kg). Twitch (0.15 Hz) and TOF (2 Hz×2 seconds) were recorded throughout the 6 -10 hours experiments. Time to spontaneous recovery after bolus administration, characterized by recovery of twitch from 5% to 95% of baseline was measured.
Separately, continuous infusions of 20-180 minutes duration were given (to separate subjects), and after discontinuation of infusion, time to spontaneous recovery of NMB, characterized by recovery of twitch from 5% to 95% of baseline was measured.

Assay [1] is described as follows: Predicted spontaneous recovery after RP2000 in patients under inhaled anesthesia. To be noted: doses up to 2.5-3× the ED95. The assay is classed as in vivo, human. The source says:
While not wishing to be bound by theory, it is believed that the highly reproducible half-life is due to degradation of RP1000 through cysteine adduction (e.g., by reaction with glutathione). The advantages imparted by the understanding of the pharmacodynamics of RP1000 include, but are not limited to, that the level of recovery of function may be easily predicted in human patients. […] This disclosure therefore reflects this prediction.

For `COc1ccc(C[C@@H]2c3cc(OC)c(OC)cc3CC[N@@+]2(C)CCCOC(=O)/C=C/C(=O)OCCC[N+]2(Cc3ccc(OC)c(OC)c3)CCOCC2)cc1.[Cl-].[Cl-]` [RP2000, 4-(3-(((E)-4-(3-((1R)-6,7-dimethoxy-1-(4-methoxybenzyl)-2-methyl-1,2,3 4-tetrahydro-2-isoquinolin-2-ium-2-yl)propoxy)-4-oxobut-2-enoyl)oxy)propyl)-4-(3,4-dimethoxybenzyl)morpholin-4-ium], the “ED95 in Rhesus monkeys” value with Rhesus monkeys (Rhesus monkeys, isoflurane anesthesia) was 0.053 mg/kg. For the same compound, the “5%-95% Interval” value came to 6.2 ± 1.4 min with Rhesus monkeys (after continuous infusion of 20-180 minutes), 6.1 ± 1.6 min with Rhesus monkeys (bolus dose 0.10 mg/kg), 6.4 ± 1.9 min in the assay with Rhesus monkeys (bolus dose 0.20 mg/kg) and 6.7 ± 2.4 min with Rhesus monkeys (bolus dose 0.50 mg/kg). Moreover, the “predictability of spontaneous recovery” value in assay [1] was “highly predictable”.
